The values below come from ChEMBL document CHEMBL3132761, “Construction of phenoxazine rings containing nitro and sulfonic acid groups leading to phenoxazine-3-sulfonamide derivatives: their evaluation as novel and potential insulin secretagogues” (Medchemcomm, 2014).

Molecules are shown by their SMILES. Active and inactive are the calls of the source. No cut-off for these calls is given here.

For experiment [1], the system named is Hepatocyte. Description: Cytotoxicity against rat primary hepatocytes after 16 hrs. The format is cell-based.
Experiment [2] relates to Hepatocyte. Description: Cytotoxicity against rat primary hepatocytes after 6 hrs. The format is cell-based.
In experiment [3] the target is T1, Peroxisome proliferator-activated receptor gamma (Homo sapiens) (UniProt P37231).
T1 sequence (whole entry): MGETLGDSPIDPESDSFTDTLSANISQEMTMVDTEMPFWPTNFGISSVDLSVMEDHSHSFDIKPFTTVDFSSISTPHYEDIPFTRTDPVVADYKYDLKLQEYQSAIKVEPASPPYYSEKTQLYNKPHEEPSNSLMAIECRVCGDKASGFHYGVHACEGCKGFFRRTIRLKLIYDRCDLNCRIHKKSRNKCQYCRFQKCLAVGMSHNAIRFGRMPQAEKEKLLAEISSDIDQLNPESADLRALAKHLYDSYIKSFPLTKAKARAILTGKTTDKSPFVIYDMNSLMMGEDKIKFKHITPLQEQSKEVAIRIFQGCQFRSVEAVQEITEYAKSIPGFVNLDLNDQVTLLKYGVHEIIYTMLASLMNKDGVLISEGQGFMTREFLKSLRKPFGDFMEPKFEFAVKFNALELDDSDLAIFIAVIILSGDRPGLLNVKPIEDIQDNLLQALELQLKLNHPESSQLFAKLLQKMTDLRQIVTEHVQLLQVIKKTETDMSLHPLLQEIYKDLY
As to the kind of experiment: Agonist activity at human GAL4-fused PPARgamma LBD expressed in HEK293T cells co-expressing DBD at 1 uM by luciferase based transactivation assay relative to control. The settings on record: HEK-293T. The format is cell-based.

Experiment [4] concerns Rattus norvegicus. Description: Antidiabetic activity in streptozotocin-nicotinamide-induced diabetic model of Wistar albino rat assessed as granulated pancreatic islets with prominent hyperplasticity at 10 mg/kg, po administered for 14 days measured on day 14 relative to control. The format is functional, organism-based. More on the design: dose 10 mg/kg.
Experiment [5] relates to Rattus norvegicus. As to the kind of experiment: Antidiabetic activity in Wistar albino rat assessed as reversal of diabetic-induced muscle wasting by measuring increase in body weight at 10 mg/kg, po administered for 14 days measured on day 14 relative to control. The format is functional.
For experiment [6], the system named is Rattus norvegicus. As to the kind of experiment: Antidiabetic activity in Wistar albino rat assessed as reversal of diabetic-induced SGPT level in liver at 10 mg/kg, po administered for 14 days measured on day 14 relative to control. The format is functional.
Experiment [7] deals with Rattus norvegicus. Description: Antidiabetic activity in Wistar albino rat assessed as reversal of diabetic-induced SGOT level in liver at 10 mg/kg, po administered for 14 days measured on day 14 relative to control. The format is functional.
Experiment [8] deals with Rattus norvegicus. As to the kind of experiment: Hypolipidemic activity in Wistar albino rat assessed as reduction of serum triglyceride level at 10 mg/kg, po administered for 14 days measured on day 14 after 1 to 8 hrs relative to control. The format is functional.
Experiment [9] deals with Rattus norvegicus. Description: Hypolipidemic activity in Wistar albino rat assessed as reduction of total cholesterol level at 10 mg/kg, po administered for 14 days measured on day 14 after 1 to 8 hrs relative to control. The format is functional.
For experiment [10], the system named is Rattus norvegicus. As to the kind of experiment: Antidiabetic activity in streptozotocin-nicotinamide-induced diabetic model of Wistar albino rat assessed as reduction of blood glucose level at 10 mg/kg, po administered for 14 days measured on day 14 after 1 to 8 hrs relative to control. The format is functional.
The test system of experiment [11] is Rattus norvegicus. Description: Antidiabetic activity in streptozotocin-nicotinamide-induced diabetic model of Wistar albino rat assessed as reduction of blood glucose level at 10 mg/kg, po administered for 14 days measured on day 7 after 1 to 8 hrs relative to control. The format is functional.
Experiment [12] relates to Rattus norvegicus. As to the kind of experiment: Antidiabetic activity in streptozotocin-nicotinamide-induced diabetic model of Wistar albino rat assessed as reduction of blood glucose level at 10 mg/kg, po after 8 hrs relative to control. The format is functional.
Experiment [13] deals with Rattus norvegicus. Description: Antidiabetic activity in streptozotocin-nicotinamide-induced diabetic model of Wistar albino rat assessed as reduction of blood glucose level at 10 mg/kg, po after 6 hrs relative to control. The format is functional.
Experiment [14] deals with Rattus norvegicus. Description: Antidiabetic activity in streptozotocin-nicotinamide-induced diabetic model of Wistar albino rat assessed as reduction of blood glucose level at 10 mg/kg, po after 4 hrs relative to control. The format is functional.
Experiment [15] relates to Rattus norvegicus. As to the kind of experiment: Antidiabetic activity in streptozotocin-nicotinamide-induced diabetic model of Wistar albino rat assessed as reduction of blood glucose level at 10 mg/kg, po after 2 hrs relative to control. The format is functional.
Experiment [16] has as its system Rattus norvegicus. As to the kind of experiment: Antidiabetic activity in streptozotocin-nicotinamide-induced diabetic model of Wistar albino rat assessed as reduction of blood glucose level at 10 mg/kg, po after 1 hr relative to control. The format is functional.
In experiment [17] the test system is Rattus norvegicus. Description: Hypoglycemic activity in over night fasted Wistar albino rat assessed as reduction of blood glucose level at 10 mg/kg, po administered 30 mins before glucose challenge measured after 120 mins by intraperitoneal glucose tolerance test (reference value: 101.07 +/- 8.98 mg/dl). The format is functional.
Experiment [18] has as its system Rattus norvegicus. Description: Hypoglycemic activity in over night fasted Wistar albino rat assessed as reduction of blood glucose level at 10 mg/kg, po administered 30 mins before glucose challenge measured after 90 mins by intraperitoneal glucose tolerance test (reference value: 94.44 +/- 6.99 mg/dl). The format is functional.
Experiment [19] concerns Rattus norvegicus. As to the kind of experiment: Hypoglycemic activity in over night fasted Wistar albino rat assessed as reduction of blood glucose level at 10 mg/kg, po administered 30 mins before glucose challenge measured after 60 mins by intraperitoneal glucose tolerance test (reference value: 106.07 +/- 13.98 mg/dl). The format is functional.
In experiment [20] the test system is Rattus norvegicus. Description: Hypoglycemic activity in over night fasted Wistar albino rat assessed as reduction of blood glucose level at 10 mg/kg, po administered 30 mins before glucose challenge measured after 30 mins by intraperitoneal glucose tolerance test (reference value: 109.28 +/- 20.53 mg/dl). The format is functional.
The test system of experiment [21] is Rattus norvegicus. As to the kind of experiment: Hypoglycemic activity in 18 hrs fasted Wistar albino rat assessed as reduction of blood glucose level at 10 mg/kg, po after 6 hrs (reference value: 101.01 +/- 1.60 mg/dl). The format is functional.
The subject of experiment [22] is Rattus norvegicus. Description: Hypoglycemic activity in 18 hrs fasted Wistar albino rat assessed as reduction of blood glucose level at 10 mg/kg, po after 4 hrs (reference value: 97.13 +/- 2.89 mg/dl). The format is functional.
Experiment [23] concerns Rattus norvegicus. Description: Hypoglycemic activity in 18 hrs fasted Wistar albino rat assessed as reduction of blood glucose level at 10 mg/kg, po after 2 hrs (reference value: 101.03 +/- 1.93 mg/dl). The format is functional.

In general, IC50 refers to the midpoint of a concentration-inhibition curve. The low end stands for greater potency, the high end for weaker potency. For the compound `O=[N+]([O-])c1cc(S(=O)(=O)Nc2ccc(O)cc2)cc2c1Nc1ccccc1O2`, the IC50 stood at 274 µM in the experiment with Hepatocyte [1] and 343 µM with Hepatocyte [2]. Further, in experiment [3], the fold change (FC) was found to be 15.5. Also, the outcome in the experiment on Rattus norvegicus [4] was Active. For the same compound, the Activity was 242 g with Rattus norvegicus [5]; 44.8 U/dl with Rattus norvegicus [6]; 47.2 U/dl in the experiment on Rattus norvegicus [7]; 63.2 mg/dL in the experiment on Rattus norvegicus [8]; 59.2 mg/dL in the experiment with Rattus norvegicus [9]; 145.6 mg/dL with Rattus norvegicus [10]. Further, the Activity in the experiment on Rattus norvegicus [11] was 165.8 mg/dL; in the experiment with Rattus norvegicus [12], 161.4 mg/dL; in the experiment with Rattus norvegicus [13], 143.3 mg/dL; in the experiment with Rattus norvegicus [14], 131.4 mg/dL; in the experiment on Rattus norvegicus [15], 116.4 mg/dL; with Rattus norvegicus [16], 158.6 mg/dL. The Activity was found to be 98.91 mg/dL in the experiment on Rattus norvegicus [17]; 78.1 mg/dL in the experiment on Rattus norvegicus [18]; 95.4 mg/dL in the experiment on Rattus norvegicus [19]; 102.43 mg/dL in the experiment with Rattus norvegicus [20]; 66.14 mg/dL in the experiment with Rattus norvegicus [21]; 44.65 mg/dL in the experiment with Rattus norvegicus [22]. Further, in the experiment on Rattus norvegicus [23], the Activity is 46.34 mg/dL.
